From paper PMC8599628 (Journal of clinical pharmacology, 2021)
Values joined by “and” are separate entries in the source; they are usually repeats but may differ in a detail not shown here. Equal values may be shown once. Read-outs that look alike come from different tables or passages of the source.

Experiments:
CYP3A4/5 = details: cited from earlier work
CYP3A = details: 25 mg RIL daily; cited from earlier work
[1] = cited from earlier work
[2] = cited from earlier work; remark: listed apart in the source
[3] = tested on: markers of immune activation; details: 10 mg bid for 5 weeks, virologically suppressed HIV+ participants; cited from earlier work
[4] = cited from earlier work; remark: listed apart in the source

O=C1Nc2ccc(Cl)cc2[C@@](C#CC2CC2)(C(F)(F)F)O1 [EFV, efavirenz]
median increase in plasma 4β-OHCC/cholesterol ratio (CYP3A4/5; 4th week after initiation of ART with EFV): 257%
median increase in plasma 4β-OHCC/cholesterol ratio (CYP3A4/5; 16th week after initiation of ART with EFV): 291%
median increase in plasma 4β-OHCC/cholesterol ratio (CYP3A4/5; 48th week after initiation of ART with EFV): 165%

Cc1cc(/C=C/C#N)cc(C)c1Nc1ccnc(Nc2ccc(C#N)cc2)n1 [RIL, rilpivirine]
effect on CYP3A-dependent drug metabolism (CYP3A): did not alter

N#CC[C@H](C1CCCC1)n1cc(-c2ncnc3[nH]ccc23)cn1 [ruxolitinib]
CL/F typical value (with EFV) (Model IV (separated CL/F by EFV status), participants administered ART with EFV (N = 14)): 22.5 L/h and 21.2 L/h
IIV V1 ω^2 (both, human, in vivo): 0.0607
IOV F ω^2 (both, human, in vivo): 0.0669
IOV F ω^2 (both, human, in vivo, po): 0.0567
ruxolitinib CL/F with co-administered RIL regimens (co-administered RIL/FTC/TAF (N = 3) or RIL/FTC/TDF (N = 1)): not increased
median post hoc estimated CL/F (men, wk1): 16.0 L/h
median post hoc estimated CL/F (men, wk4/5): 14.3 L/h
geometric mean CL/F (post hoc, Model IV) (wk1, EFV/FTC/TDF group): 22.3 L/h
geometric mean CL/F (post hoc, Model IV) (wk1, INSTI group): 13.8 L/h
mean post hoc predicted CL/F (wk1, N = 39): 16.6 L/h
geometric mean CL/F (post hoc, Model IV) (wk4/5, EFV/FTC/TDF group): 20.8 L/h
geometric mean CL/F (post hoc, Model IV) (wk4/5, INSTI group): 12.7 L/h
mean post hoc predicted CL/F (wk4/5, N = 37): 15.7 L/h
median post hoc estimated CL/F (women, wk1): 15.2 L/h
median post hoc estimated CL/F (women, wk4/5): 13.6 L/h
orally absorbed [1]: > 95%
IIV Ka [2]: 75%
IIV V1 [2]: 28%
IIV V2/F [2]: 102%
V2 [2]: 11.2 L
IIV CL/F ([2]; myelofibrosis patients): 39.1%
V1 ([2]; normalized to a mean body weight of 72.9 kg): 58.6 L
markers of immune activation [3]: significantly decreased
reduction of ruxolitinib CL/F ([4]; 10 mg ruxolitinib tablet with 200 mg bid ketoconazole, N = 16): 91%
reduction of ruxolitinib CL/F ([4]; 10 mg ruxolitinib tablet with 500 mg erythromycin, N = 15): 21%
increase in ruxolitinib CL/F ([4]; 30 mg ruxolitinib tablet before and after 10 days of 600 mg rifampin, healthy participants N = 12): 71%
